From patent US12509424B2, “Compound and composition as PDGF receptor kinase inhibitor” (NIPPON SHINYAKU CO., LTD., priority 2019, dated 2025)
Where two headings read alike, the source gives them in different places.

Columns and labels:
[1] = system: pulmonary arterial smooth muscle cells; assay: Suppression of proliferation of pulmonary arterial smooth muscle cells (PDGF-BB stimulation, BrdU); format: cell-based; conditions: PASMC, read-out: Human normal PASMC proliferation suppression (PDGF stimulation_IC50)
How it was run: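 Test compound (final 3 to 10,000 nM) was added together with BrdU and PDGF-BB (final 10 ng/mL) to healthy human pulmonary artery smooth muscle cells held a day in 0.1% FBS. Proliferation was read after 1 day as anti-BrdU-detected BrdU incorporation.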

[2] = target: TEL-KIT fusion gene transfected cells (Ba/F3); assay: Suppression of proliferation of TEL-KIT fusion gene transfected Ba/F3 cells; conditions: read-out: KIT/BaF3 proliferation inhibition (IC50); TEL-KIT expressing Ba/F3 cells, 72 hours, final concentration 0.1 to 10,000 nM;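 note: viable cells quantified via formazan from tetrazolium reduction, inhibition scaled with 0.1% DMSO control as 0% and medium-only blank as 100%, IC50 from two-parameter logistic fit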
PDGFR-β = PDGFR-β (Homo sapiens (Human), UniProt P09619); assay: PDGFR-β tyrosine kinase inhibitory action (HTRF KinEASE-TK); format: biochemical; conditions: PDGFR-β enzyme 1 ng/μL, 30° C. for 30 minutes; read-out: PDGF-β IC50
How it was run: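 Recombinant PDGFR-β at 1 ng/μL final with TK substrate-3-biotin in a substrate solution containing 0.6 μM ATP; buffer 50 mM HEPES pH 7.0, 5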

[3] = target: TEL-PDGFRβ fusion gene transfected cells (Ba/F3); assay: Suppression of proliferation of TEL-PDGFRβ fusion gene transfected Ba/F3 cells; format: cell-based, human; conditions: TEL-PDGFRβ expressing Ba/F3 cells, 72 hours, final concentration 0.1 to 10,000 nM; read-out: PDGFR β/BaF3 proliferation inhibition (IC50)
From the text: 2. Preparation of Test Substance
4. Analysis of Measurement Results

[4] = human PDGF-BB 10 ng/mL, BrdU uptake, final concentration 3 to 10,000 nM
[5] = 24 h, healthy human derived pulmonary arterial smooth muscle cells, human PDGF-BB 10 ng/mL stimulation, BrdU uptake after 1 day, test substance final concentration 3 to 10,000 nM

PDGFR-β, sequence (P09619 33-1106): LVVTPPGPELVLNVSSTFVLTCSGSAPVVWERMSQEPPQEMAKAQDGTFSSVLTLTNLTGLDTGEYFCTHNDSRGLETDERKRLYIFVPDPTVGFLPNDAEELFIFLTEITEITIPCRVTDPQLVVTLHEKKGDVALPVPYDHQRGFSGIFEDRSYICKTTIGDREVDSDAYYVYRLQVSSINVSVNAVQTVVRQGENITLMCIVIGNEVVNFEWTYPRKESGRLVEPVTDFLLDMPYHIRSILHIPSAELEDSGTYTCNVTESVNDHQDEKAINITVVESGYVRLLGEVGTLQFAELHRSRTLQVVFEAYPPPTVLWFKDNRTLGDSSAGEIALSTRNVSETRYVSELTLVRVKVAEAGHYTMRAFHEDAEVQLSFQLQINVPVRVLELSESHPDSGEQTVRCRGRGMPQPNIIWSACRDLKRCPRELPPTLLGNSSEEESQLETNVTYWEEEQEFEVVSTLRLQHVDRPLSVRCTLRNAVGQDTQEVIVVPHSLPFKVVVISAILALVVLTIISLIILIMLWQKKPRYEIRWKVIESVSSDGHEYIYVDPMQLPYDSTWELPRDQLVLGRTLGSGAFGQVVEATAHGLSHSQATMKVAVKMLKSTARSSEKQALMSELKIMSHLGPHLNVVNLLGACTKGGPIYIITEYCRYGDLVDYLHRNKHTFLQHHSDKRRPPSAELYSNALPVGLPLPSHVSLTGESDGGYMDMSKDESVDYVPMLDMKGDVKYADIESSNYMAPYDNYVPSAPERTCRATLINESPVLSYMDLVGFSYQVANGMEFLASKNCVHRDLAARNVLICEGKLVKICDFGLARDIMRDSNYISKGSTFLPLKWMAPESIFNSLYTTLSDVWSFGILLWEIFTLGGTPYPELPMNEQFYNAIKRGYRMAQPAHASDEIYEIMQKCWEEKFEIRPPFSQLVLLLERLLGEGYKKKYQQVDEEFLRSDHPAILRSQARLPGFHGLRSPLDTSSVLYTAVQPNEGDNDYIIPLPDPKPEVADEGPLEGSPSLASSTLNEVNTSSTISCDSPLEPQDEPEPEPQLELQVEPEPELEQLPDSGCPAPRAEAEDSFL
TEL-PDGFRβ fusion gene transfected cells (Ba/F3), sequence (P09619 33-1106 limits assumed, change not shown): as the sequence (P09619 33-1106) above
TEL-KIT fusion gene transfected cells (Ba/F3), sequence (P10721 26-976 limits assumed, change not shown): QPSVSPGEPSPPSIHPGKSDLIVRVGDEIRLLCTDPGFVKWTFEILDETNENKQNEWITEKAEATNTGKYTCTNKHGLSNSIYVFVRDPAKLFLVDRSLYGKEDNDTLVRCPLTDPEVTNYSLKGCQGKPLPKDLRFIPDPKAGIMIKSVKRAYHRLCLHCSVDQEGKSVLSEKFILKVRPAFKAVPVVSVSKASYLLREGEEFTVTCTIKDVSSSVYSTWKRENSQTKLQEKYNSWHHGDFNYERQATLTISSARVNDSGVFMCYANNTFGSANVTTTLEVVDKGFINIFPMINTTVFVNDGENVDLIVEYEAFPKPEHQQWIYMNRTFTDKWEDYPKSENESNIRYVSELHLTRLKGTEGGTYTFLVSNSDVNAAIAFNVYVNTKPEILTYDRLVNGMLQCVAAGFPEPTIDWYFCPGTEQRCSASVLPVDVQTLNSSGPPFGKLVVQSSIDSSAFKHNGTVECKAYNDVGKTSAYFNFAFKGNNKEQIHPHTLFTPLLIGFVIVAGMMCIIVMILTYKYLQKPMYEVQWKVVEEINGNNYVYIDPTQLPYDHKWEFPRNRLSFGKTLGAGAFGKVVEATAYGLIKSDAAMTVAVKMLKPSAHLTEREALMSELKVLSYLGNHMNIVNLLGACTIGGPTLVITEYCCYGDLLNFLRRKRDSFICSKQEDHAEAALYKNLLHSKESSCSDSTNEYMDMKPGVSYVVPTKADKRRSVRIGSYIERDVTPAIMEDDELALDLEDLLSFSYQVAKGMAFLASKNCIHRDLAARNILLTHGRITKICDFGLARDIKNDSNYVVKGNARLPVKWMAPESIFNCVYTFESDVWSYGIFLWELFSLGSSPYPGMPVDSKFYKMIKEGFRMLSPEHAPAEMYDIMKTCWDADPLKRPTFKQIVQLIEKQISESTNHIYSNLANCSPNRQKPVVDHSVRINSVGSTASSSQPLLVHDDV

| Compound | IC50 [2] [nM] | IC50 (PDGFR-β) [nM] | IC50 [3] [nM] | IC50 [1, 4] [nM] | IC50 [1, 5] [nM] |
| --- | --- | --- | --- | --- | --- |
| Cc1ccc(C(=O)N[C@H]2CCCC[C@@H]2O)cc1NC(=O)c1cnc(NC2CC2)s1 [Example 1, 2-(cyclopropylamino)-N-(5-{[(1S,2S)-2-hydroxycyclohexyl]carbamoyl}-2-methylphenyl)-1,3-thiazole-5-carboxamide] | 480 | 5.9 | 17 | 110 | – |
| Cc1ccc(C(=O)N[C@H]2CCCC[C@@H]2O)cc1NC(=O)c1cncc(-c2ccccc2)c1 [Example 2, N-(5-{[(1S,2S)-2-hydroxycyclohexyl]carbamoyl}-2-methylphenyl)-5-phenylpyridine-3-carboxamide] | 200 | 22 | 3.6 | 23 | – |
| Cc1ccc(C(=O)N[C@H]2CCCC[C@@H]2O)cc1NC(=O)c1cnc(CC2CC2)s1 [Example 3, 2-(cyclopropylmethyl)-N-(5-{[(1S,2S)-2-hydroxycyclohexyl]carbamoyl}-2-methylphenyl)-1,3-thiazole-5-carboxamide] | 620 | 82 | 1.4 | 30 | – |
| Cc1ccc(C(=O)N[C@H]2CCCC[C@@H]2O)cc1NC(=O)c1cncc(NC2CC2)c1 [Example 4, 5-(cyclopropylamino)-N-(5-{[(1S,2S)-2-hydroxycyclohexyl]carbamoyl}-2-methylphenyl)pyridine-3-carboxamide] | 1500 | 4.9 | 26 | 220 | – |
| Cc1ccc(C(=O)N[C@H]2CCCC[C@@H]2O)cc1NC(=O)c1cnc(-c2ccccc2)o1 [Example 5, N-(5-{[(1S,2S)-2-hydroxycyclohexyl]carbamoyl}-2-methylphenyl)-2-phenyl-1,3-oxazole-5-carboxamide] | 170 | 6.1 | 5.8 | 48 | – |
| Cc1ccc(C(=O)N[C@H](CO)c2ccccc2)cc1NC(=O)c1cncc(-c2ccccc2)c1 [Example 6, N-(5-{[(1S)-2-hydroxy-1-phenylethyl]carbamoyl}-2-methylphenyl)-5-phenylpyridine-3-carboxamide] | 170 | 12 | 14 | 23 | – |
| Cc1ccc(C(=O)N[C@H]2CCCC[C@@H]2O)cc1NC(=O)c1cncc(OC(C)C)c1 [Example 7, N-(5-{[(1S,2S)-2-hydroxycyclohexyl]carbamoyl}-2-methylphenyl)-5-[(propan-2-yl)oxy]pyridine-3-carboxamide] | 1900 | 170 | 43 | 150 | – |
| Cc1ccc(C(=O)N[C@H]2CCCC[C@@H]2O)cc1NC(=O)c1cnc(NCC2CC2)s1 [Example 8, 2-[(cyclopropylmethyl)amino]-N-(5-{[(1S,2S)-2-hydroxycyclohexyl]carbamoyl}-2-methylphenyl)-1,3-thiazole-5-carboxamide] | 650 | 6 | 9.7 | 110 | – |
| Cc1ccc(C(=O)N[C@H]2CCCC[C@@H]2O)cc1NC(=O)c1cncc(-c2ccc(Cl)cc2)c1 [Example 9, 5-(4-chlorophenyl)-N-(5-{[(1S,2S)-2-hydroxycyclohexyl]carbamoyl}-2-methylphenyl)pyridine-3-carboxamide] | 530 | 26 | 22 | 46 | – |
| CCCc1ncc(C(=O)Nc2cc(C(=O)N[C@H]3CCCC[C@@H]3O)ccc2C)s1 [Example 10, N-(5-{[(1S,2S)-2-hydroxycyclohexyl]carbamoyl}-2-methylphenyl)-2-propyl-1,3-thiazole-5-carboxamide] | 660 | 220 | 25 | 140 | – |
| Cc1ccc(C(=O)N[C@H]2CCCC[C@@H]2O)cc1NC(=O)c1cncc(-c2cccc(Cl)c2)c1 [Example 11, 5-(3-chlorophenyl)-N-(5-{[(1S,2S)-2-hydroxycyclohexyl]carbamoyl}-2-methylphenyl)pyridine-3-carboxamide] | 310 | 17 | 13 | 49 | – |

Further lines, with some results ahead:

| IC50 [2] [nM] | IC50 (PDGFR-β) [nM] | IC50 [3] [nM] | Compound | IC50 [1, 4] [nM] | IC50 [1, 5] [nM] |
| --- | --- | --- | --- | --- | --- |
| 800 | 170 | 35 | Cc1ccc(C(=O)N[C@H]2CCCC[C@@H]2O)cc1NC(=O)c1cncc(-c2ccccc2C)c1 [Example 12, N-(5-{[(1S,2S)-2-hydroxycyclohexyl]carbamoyl}-2-methylphenyl)-5-(2-methylphenyl)pyridine-3-carboxamide] | 65 | – |
| 790 | 140 | 17 | Cc1ccc(C(=O)N[C@H]2CCCC[C@@H]2O)cc1NC(=O)c1cncc(-c2ccccc2Cl)c1 [Example 13, 5-(2-chlorophenyl)-N-(5-{[(1S,2S)-2-hydroxycyclohexyl]carbamoyl}-2-methylphenyl)pyridine-3-carboxamide] | 100 | – |
| 330 | 40 | 11 | CCC[C@@H](CO)NC(=O)c1ccc(C)c(NC(=O)c2cncc(-c3ccccc3)c2)c1 [Example 14, N-(5-{[(2S)-1-hydroxypentan-2-yl]carbamoyl}-2-methylphenyl)-5-phenylpyridine-3-carboxamide] | 48 | – |
| 330 | 11 | 3.9 | Cc1ccc(C(=O)N[C@H]2CCCC[C@@H]2O)cc1NC(=O)c1cncc(/C=C/C2CC2)c1 [Example 15, 5-[(E)-2-cyclopropylethenyl]-N-(5-{[(1S,2S)-2-hydroxycyclohexyl]carbamoyl}-2-methylphenyl)pyridine-3-carboxamide] | 18 | – |
| 1300 | 22 | 130 | Cc1ccc(C(=O)N[C@H]2CCCC[C@@H]2O)cc1NC(=O)c1cncc(NCC2CC2)c1 [Example 16, 5-[(cyclopropylmethyl)amino]-N-(5-{[(1S,2S)-2-hydroxycyclohexyl]carbamoyl}-2-methylphenyl)pyridine-3-carboxamide] | 81 | – |
| 600 | 38 | 79 | Cc1ccc(C(=O)N[C@H]2CCCC[C@@H]2O)cc1C(=O)Nc1cncc(-c2ccccc2)c1 [Example 77, N^1-[(1S,2S)-2-hydroxycyclohexyl]-4-methyl-N^3-(5-phenylpyridin-3-yl)benzene-1,3-dicarboxamide] | – | – |
| 2400 | 260 | 12 | Cc1ccc(C(=O)N[C@H]2CCCC[C@@H]2O)cc1OC(C)c1cncc(-c2ncccn2)c1 (stereo partly drawn) [Example 171, N-[(1S,2S)-2-hydroxycyclohexyl]-4-methyl-3-{1-[5-(pyrimidin-2-yl)pyridin-3-yl]ethoxy}benzamide] | – | – |
| 870 | 27 | 50 | Cc1ccc(C(=O)N[C@H]2CCCC[C@@H]2O)cc1CCc1cncc(-c2ccccc2)c1 [Example 174, N-[(1S,2S)-2-hydroxycyclohexyl]-4-methyl-3-[2-(5-phenylpyridin-3-yl)ethyl]benzamide] | – | – |
| – | 77 | – | O=C(N[C@H]1CCCC[C@@H]1O)c1ccc(F)c(/C=C(\F)c2cnc(NCC3CC3)nc2)c1 [Example 202, 3-[(Z)-2-{2-[(cyclopropylmethyl)amino]pyrimidin-5-yl}-2-fluoroethenyl]-4-fluoro-N-[(1S,2S)-2-hydroxycyclohexyl]benzamide] | – | 33 |
| – | 61 | – | O=C(N[C@H]1CCCC[C@@H]1O)c1ccc(F)c(/C=C(\F)c2cnc(NC3CC3)nc2)c1 [Example 203, 3-{(Z)-2-[2-(cyclopropylamino)pyrimidin-5-yl]-2-fluoroethenyl}-4-fluoro-N-[(1S,2S)-2-hydroxycyclohexyl]benzamide] | – | 200 |
| – | 21 | – | Cc1nc(N)ncc1/C(F)=C/c1cc(C(=O)N[C@H]2CCCC[C@@H]2O)ccc1F [Example 204, 3-[(Z)-2-(2-amino-4-methylpyrimidin-5-yl)-2-fluoroethenyl]-4-fluoro-N-[(1S,2S)-2-hydroxycyclohexyl]benzamide] | – | 52 |
| – | 130 | – | CNc1ncc(/C(F)=C/c2cc(C(=O)N[C@H]3CCCC[C@@H]3O)ccc2F)cn1 [Example 205, 4-fluoro-3-{(Z)-2-fluoro-2-[2-(methylamino)pyrimidin-5-yl]ethenyl}-N-[(1S,2S)-2-hydroxycyclohexyl]benzamide] | – | 160 |
| – | 31 | – | Cc1ccc(C(=O)N[C@H]2CCCC[C@@H]2O)cc1/C=C(\F)c1cnc(N)cn1 [Example 206, 3-[(Z)-2-(5-aminopyrazin-2-yl)-2-fluoroethenyl]-N-[(1S,2S)-2-hydroxycyclohexyl]-4-methylbenzamide] | 92 | – |
| – | 100 | – | O=C(N[C@H]1CCCC[C@@H]1O)c1ccc(F)c(/C=C(\F)c2cncc(F)c2)c1 [Example 207, 4-fluoro-3-[(Z)-2-fluoro-2-(5-fluoropyridin-3-yl)ethenyl]-N-[(1S,2S)-2-hydroxycyclohexyl]benzamide] | 99 | – |
